Laboratory results reported in patent US20160311791A1, “NOVEL TRICYCLIC CALCIUM SENSING RECEPTOR ANTOGONISTS FOR THE TREATMENT OF OSTEOPOSOSIS” (MERCK SHARP & DOHME CORP., priority 2013, published 2016).

biological target: T1, human CaSR (Homo sapiens, UniProt P41180); test: CaSR FLIPR assay (calcilytic activity); assay type: cell-based; design: expressed in transfected cells; conditions: HEK293 cells stably expressing human recombinant CaSR; 1 mM CaCl2 agonist; Tables 1-24; read-out: FLIPR ASSAY IC50
T1 sequence (P41180 20-1078): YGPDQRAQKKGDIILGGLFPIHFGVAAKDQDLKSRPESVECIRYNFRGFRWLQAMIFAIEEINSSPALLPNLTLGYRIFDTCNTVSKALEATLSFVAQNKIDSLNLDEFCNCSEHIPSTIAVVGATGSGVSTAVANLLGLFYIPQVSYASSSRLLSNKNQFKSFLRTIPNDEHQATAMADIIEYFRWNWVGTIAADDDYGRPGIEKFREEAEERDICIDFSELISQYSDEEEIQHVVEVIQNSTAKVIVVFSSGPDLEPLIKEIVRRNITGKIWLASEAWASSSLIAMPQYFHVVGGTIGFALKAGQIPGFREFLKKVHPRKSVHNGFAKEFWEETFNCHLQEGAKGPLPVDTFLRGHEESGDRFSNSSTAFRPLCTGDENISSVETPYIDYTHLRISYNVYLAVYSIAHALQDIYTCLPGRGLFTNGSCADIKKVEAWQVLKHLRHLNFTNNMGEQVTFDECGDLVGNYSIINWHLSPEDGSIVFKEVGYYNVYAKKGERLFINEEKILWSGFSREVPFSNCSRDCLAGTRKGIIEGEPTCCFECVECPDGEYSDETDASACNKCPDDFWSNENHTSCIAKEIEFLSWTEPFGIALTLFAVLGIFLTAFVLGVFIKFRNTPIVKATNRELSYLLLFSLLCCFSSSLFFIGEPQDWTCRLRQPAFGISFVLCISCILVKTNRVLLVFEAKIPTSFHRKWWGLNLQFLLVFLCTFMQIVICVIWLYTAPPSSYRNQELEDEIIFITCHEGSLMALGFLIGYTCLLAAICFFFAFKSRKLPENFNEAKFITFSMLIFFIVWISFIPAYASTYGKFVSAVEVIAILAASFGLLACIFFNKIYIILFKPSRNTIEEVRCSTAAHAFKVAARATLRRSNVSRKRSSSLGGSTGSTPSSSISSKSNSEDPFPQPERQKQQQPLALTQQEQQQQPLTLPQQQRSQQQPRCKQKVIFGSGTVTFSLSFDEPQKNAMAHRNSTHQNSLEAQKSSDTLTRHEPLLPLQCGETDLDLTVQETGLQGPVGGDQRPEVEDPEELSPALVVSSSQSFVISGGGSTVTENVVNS
Experimental: Procedures for CaSR FLIPR Assay
Calcilytic activity of the compound is measured in HEK293 cells stably expressing human recombinant CaSR (HEK-CaSR) using a FLIPR^TETRA device (Molecular Devices, Sunnyvale, Calif.) according to the manufacturer's directions. […] On the day of the assay, one vial of FLIPR Calcium 4 Assay Kit reagent Component A was equilibrated to room temperature. The content of the Component A vial was diluted by adding 10 ml dilution buffer (2×loading dye). The sample was mixed by vortexing (1-2 minutes) until the contents of the vial dissolved. The Component A vial mixture was diluted with 10 ml dilution buffer. Media was aspirated from the cells and 80 μl of loading buffer was added to each well. Plates were incubated for 1 hour at 37° C. and then placed at room temperature for 10 minutes. A two-stage method of generating 10-point serial dilutions was used. Compound was serially diluted in 100% DMSO (10 point, 3-fold dilution of each compound from 2 mM in 100% DMSO). 3 μl of serially diluted compound was transferred into a second assay microplate that contained 97 μl of TETRA dilution buffer (20 mM HEPES pH7.4, 1×HBSS without Ca and Mg, 0.4 mM CaCl2, 0.4 mM MgSO4, 0.5 mM MgCl2) to create the intermediate dilution plate. After reading the base line, the compounds in 0.5% DMSO in dilution buffer were added to their respective wells as 20 μl aliquots at 6×the final drug concentration. The fluorescence signals were then read. Subsequently, 20 μl of 3.6 mM of CaCl2 agonist (1 mM final concentration) was added to each well. For background, 20 μl of TETRA dilution buffer was added instead. The protocol consisted of a pre-addition read of 10 frames (10×1 frame/sec), a post 1st addition read of 100 frames (60×1 frame/sec, 40×1 frame/3 sec), pause 3 min, a post 2nd addition read of 100 frames (60×1 frame/sec, 40×1 frame/3 sec) on a FLIPR^TETRA Plate Reader.

SMILES	IC50
CSc1ccc(CC(C)(C)NC[C@@H](O)CO[C@H](C)c2cccc3c2O[C@@H]2[C@@H](C(=O)O)[C@H]32)cc1Cl [Example 1-21]	86 nM
C[C@@H](OC[C@H](O)CNC(C)(C)Cc1ccc2sccc2c1)c1cccc2c1[C@@H]1[C@H](O2)[C@H]1C(=O)O [Example 5-9]	23 nM
CCOC(=O)[C@@H]1[C@H]2Oc3cccc([C@@H](C)OC[C@H](O)CNC(C)(C)Cc4ccc5ccccc5c4)c3[C@H]21 [Example 5-20]	130 nM
COc1ccc(CC(C)(C)NC[C@@H](O)CO[C@H](C)c2cccc3c2[C@@H]2[C@H](O3)[C@H]2C(=O)O)c(F)c1 [Example 5-11]	108 nM
C[C@@H](OC[C@H](O)CNC(C)(C)CC1Cc2ccccc2C1)c1cccc2c1O[C@H]1[C@H](C(=O)O)[C@@H]21 [Example 2-3]	307 nM
Cc1ccc([C@@H](C)OC[C@H](O)CNC(C)(C)Cc2ccc(Cl)c(F)c2)c2c1O[C@H]1[C@H](C(=O)O)[C@@H]21 [Example 9-2]	78 nM
C[C@@H](OC[C@H](O)CNC(C)(C)Cc1ccc2c(c1)CCC2)c1cccc2c1[C@@H]1[C@H](O2)[C@H]1C(=O)O [Example 5-7]	25 nM
Cc1ccc([C@@H](C)OC[C@H](O)CNC(C)(C)Cc2ccc(Cl)c(F)c2)c2c1O[C@@H]1[C@@H](C(=O)O)[C@H]21 [Example 8-2]	58.5 nM
C[C@@H](OC[C@H](O)CNC(C)(C)CN1CCc2ccccc2C1)c1cccc2c1O[C@H]1[C@H](C(=O)O)[C@@H]21 [Example 2-8]	7390 nM
C[C@@H](OC[C@H](O)CNC(C)(C)C(=O)N1CCc2ccccc2C1)c1cccc2c1O[C@H]1[C@H](C(=O)O)[C@@H]21 [Example 2-7]	≥ 10000 nM
Cc1ccc(CC(C)(C)NC[C@@H](O)CO[C@H](C)c2cccc3c2O[C@@H]2[C@@H](C(=O)O)[C@H]32)cc1C [Example 1-5]	230 nM
COc1ccc(CC(C)(C)NC[C@@H](O)CO[C@H](C)c2cccc3c2O[C@@H]2[C@@H](C(=O)O)[C@H]32)c(Cl)c1 [Example 1-19]	170 nM
C[C@@H](OC[C@H](O)CNC(C)(C)Cc1ccc2c(c1)OCO2)c1cccc2c1O[C@@H]1[C@@H](C(=O)O)[C@H]21 [Example 1-8]	320 nM
C[C@@H](OC[C@H](O)CNC(C)(C)Cc1ccc(Cl)c(Cl)c1)c1cccc2c1[C@@H]1[C@H](O2)[C@H]1C(=O)O [Example 5-12]	39 nM
C[C@@H](OC[C@H](O)CNC(C)(C)Cc1ccc(Cl)c(Cl)c1)c1cccc2c1O[C@@H]1[C@@H](C(=O)O)[C@H]21 [Example 1-13]	39 nM
C[C@@H](OC[C@H](O)CNC(C)(C)Cc1ccc(Cl)c(F)c1)c1cccc2c1[C@@H]1[C@H](O2)[C@H]1C(=O)O [Example 5-2]	32 nM
CSc1ccc(CC(C)(C)NC[C@@H](O)CO[C@H](C)c2cccc3c2[C@@H]2[C@H](O3)[C@H]2C(=O)O)cc1 [Example 5-13]	72 nM
Cc1ccc([C@@H](C)OC[C@H](O)CNC(C)(C)Cc2ccc3c(c2)OCCO3)c2c1O[C@@H]1[C@@H](C(=O)O)[C@H]21 [Example 8-13]	22 nM
CSc1ccc(CC(C)(C)NC[C@@H](O)CO[C@H](C)c2cccc3c2O[C@H]2[C@H](C(=O)O)[C@@H]32)cc1F [Example 2-9]	830 nM
C[C@@H](OC[C@H](O)CNC(C)(C)CCCc1ccccc1)c1cccc2c1O[C@@H]1[C@@H](C(=O)O)[C@H]21 [Example 1-14]	38 nM
C[C@@H](OC[C@H](O)CNC(C)(C)Cc1ccc(F)c(F)c1)c1cccc2c1O[C@@H]1[C@@H](C(=O)O)[C@H]21 [Example 1-15]	1270 nM
C[C@@H](OC[C@H](O)CNC(C)(C)Cc1ccc([S+](C)[O-])cc1)c1cccc2c1O[C@@H]1[C@@H](C(=O)O)[C@H]21 (stereo partly drawn) [Example 1-16]	> 10000 nM
C[C@@H](OC[C@H](O)CNC(C)(C)CC1Cc2ccccc2C1)c1cccc2c1[C@@H]1[C@H](O2)[C@H]1C(=O)O [Example 5-3]	35.5 nM

Further lines, results first:

IC50	SMILES
130 nM	CCOC(=O)[C@@H]1[C@H]2Oc3c(C)ccc([C@@H](C)OC[C@H](O)CNC(C)(C)Cc4ccc(SC)c(F)c4)c3[C@H]21 [Example 12-1]
> 10000 nM	Cc1ccc([C@@H](C)OC[C@H](O)CNC2(Cc3ccc4ccccc4c3)CCC2)c2c1O[C@H]1[C@H](C(=O)O)[C@@H]21 [Example 9-8]
53 nM	Cc1ccc([C@@H](C)OC[C@H](O)CNC(C)(C)Cc2ccc3c(c2)CCC3)c2c1O[C@H]1[C@H](C(=O)O)[C@@H]21 [Example 9-6]
20 nM	C[C@@H](OC[C@H](O)CNC(C)(C)Cc1ccc2ccccc2c1)c1cc(Cl)cc2c1O[C@@H]1[C@@H](C(=O)O)[C@H]21 [Example 20-1]
40 nM	CSc1ccc(CC(C)(C)NC[C@@H](O)CO[C@H](C)c2ccc(C)c3c2C2[C@H](O3)[C@H]2C(=O)O)cc1 (stereo partly drawn) [Example 8-23]
9 nM	Cc1cc(Cl)c([C@@H](C)OC[C@H](O)CNC(C)(C)Cc2ccc3ccccc3c2)c2c1O[C@@H]1[C@@H](C(=O)O)[C@H]21 [Example 16-1]
28 nM	C[C@@H](OC[C@H](O)CNC(C)(C)Cc1ccc2ccccc2c1)c1cccc2c1[C@@H]1[C@H](C2)[C@H]1C(=O)O [Example 13-1]
176 nM	C[C@@H](OC[C@H](O)CNC(C)(C)Cc1ccc2ccccc2c1)c1cc(F)cc2c1O[C@@H]1[C@@H](C(=O)O)[C@H]21 [Example 19-1]
26 nM	C[C@@H](OC[C@H](O)CNC(C)(C)Cc1ccc2ccccc2c1)c1ccc(F)c2c1C1C(O2)C1C(=O)O (stereo partly drawn) [Example 17-1]
68 nM	Cc1ccc(CC(C)(C)NC[C@@H](O)CO[C@H](C)c2ccc(C)c3c2[C@H]2[C@@H](O3)[C@@H]2C(=O)O)cc1F [Example 9-4]
> 10000 nM	Cc1ccc([C@@H](C)OC[C@H](O)CNC(C)(C)Cc2ccc3c(c2)CCS3(=O)=O)c2c1O[C@@H]1[C@@H](C(=O)O)[C@H]21 [Example 8-27]
130 nM	CSc1ccc(CC(C)(C)NC[C@@H](O)CO[C@H](C)c2cccc3c2[C@@H]2[C@H](C3)[C@H]2C(=O)O)cc1F [Example 13-5]
42 nM	CC(OC[C@H](O)CNC(C)(C)Cc1ccc2ccccc2c1)c1cccc2c1C1C(S2)C1C(=O)O (stereo partly drawn) [Example 23-1]
119 nM	Cc1ccc([C@@H](C)OC[C@H](O)CNC(C)(C)Cc2cccc3ccccc23)c2c1O[C@@H]1[C@@H](C(=O)O)[C@H]21 [Example 8-9]
1410 nM	Cc1ccc([C@@H](C)OC[C@H](O)CNC(C)(C)CSc2ccc(F)cc2)c2c1O[C@@H]1[C@@H](C(=O)O)[C@H]21 [Example 8-32]
17 nM	Cc1cc(Cl)c([C@@H](C)OC[C@H](O)CNC(C)(C)Cc2ccc3occc3c2)c2c1O[C@@H]1[C@@H](C(=O)O)[C@H]21 [Example 16-2]
14 nM	Cc1cc(Cl)c([C@@H](C)OC[C@H](O)CNC(C)(C)Cc2ccc3sccc3c2)c2c1O[C@@H]1[C@@H](C(=O)O)[C@H]21 [Example 16-3]
187 nM	Cc1ccc([C@@H](C)OC[C@H](O)CNC2(Cc3ccc4ccccc4c3)CC2)c2c1O[C@H]1[C@H](C(=O)O)[C@@H]21 [Example 9-7]
15 nM	Cc1ccc([C@@H](C)OC[C@H](O)CNC(C)(C)Cc2ccc3c(c2)CCC3)c2c1O[C@@H]1[C@@H](C(=O)O)[C@H]21 [Example 8-10]
